The text below walks through data of US20250041272A1, “COMPOSITIONS AND METHODS FOR TREATING CANCER VIA PTP1B INHIBITION” (priority 2021, published 2025).

Data set [1] deals with Stat1 phosphorylation and MyD88 in macrophages. Description: Transwell co-culture of M1 induced macrophages with tumor cells plus inhibitors (Western blot, qRT-PCR). The format is cell-based, mouse. The settings on record: 24 hours. The protocol:
Peritoneal macrophage isolation and culture. Peritoneal macrophages were done as described previously(65) from 8-week-old C57BL/6J mice (randomized, both male and female). PBS (Gibco) was injected in the mural peritoneal cavity to release the macrophages. After recovering, cells were centrifuged at 1200 rpm for 5 minutes, resuspended in DMEM high glucose, 10% FBS, 1% penicillin-streptomycin (Gibco) and plated. 2 hours after the last step, cells were washed with PBS and maintained in DMEM/F12 supplemented with 10% FBS, 1% penicillin-streptomycin and 20 ng/ml of M-CSF (Prospec) for 2 days. Macrophages were treated for 24 hours with 50 ng/ml LPS (Sigma Millipore), 100 ng/ml IFNγ (BioLegend), 300 ng/ml PAM3CSK4 (InvivoGen), 107 cells/ml heat killed Listeria Monocytogenes (HKLM) (InvivoGen), 100 ng/ml Flagellin Salmonella typhimurium standard (InvivoGen), 10 ng/ml FSL1 (InvivoGen), 2.5 ug/ml ssRNA40 (InvivoGen), 2.5 ug/ml CL 075 (Tocris), 5 μM ODN1826, 50 μM Fludarabine (SelleckChem), 50 nM Momelotinib (SelleckChem), 5 μM BVT948 (Sigma Millipore), 200 μM PTP1b inhibitor III (Santa Cruz Biotechnology Inc.), 5 μM NSC87877 (Santa Cruz Biotechnology Inc.), 50 μM PTP1b inhibitor (Cayman), 1 mM PTP Inhibitor IV (Santa Cruz Biotechnology Inc.), 1 μM TSC401, 300 nM UNC2371 (SelleckChem), 300 nM BMS777607 (SelleckChem), 300 nM LDC1267 (SelleckChem) 1.5 μg/ml recombinant Pros1 (R&D systems), 200 ng/ml recombinant Gas6 (R&D systems) or 10-500 μM Cisplatin (Tocris). All components were added as described in the text. Cell culture. B16F10 (CRL-6475, ATCC), Lewis lung carcinoma (LLC) (CRL-1642, ATCC), KPC2713 (Yuliya Pylayeva-Gupta laboratory, UNC) and MDA-MB-231 (HTB-26, ATCC) were cultured in DMEM high glucose supplemented with 10% FBS, 1% penicillin-streptomycin (Gibco). […]
(In general: A western blot detects proteins with antibodies after separation by electrophoresis.)

The next data set deals with GEMM6 tumors. Description: GEMM6 melanoma tumor model. The format is in vivo. The method, then:
Tumor implantation, treatment and harvest. For animal studies, 1*10^5 B16F10 luciferase-tagged melanoma cells, 1*10^6 GEMM6 melanoma cells or 2*10^6 LCC cells were implanted subcutaneously into C57BL/6J mice (randomized, both males and females, 000664 The Jackson laboratory). When indicated, mice received intraperitoneal injections 7 days after implantation with 100 μl of 5 mg/kg cisplatin (Tocris), 100 μl of 10 mg/kg BVT948 (Tocris) or 100 μl of 30 mg/kg of vemurafenib. […]
Immunohistochemistry analysis. Immunohistochemistry assay was carried out in formalin-fixed, paraffin-embedded 4 μm sections using primary antibodies against F4:80 (AbD Serotec), CD11b (Abcam), CD4 (eBioscience) or CD8a (eBioscience) on a Discovery Ultra Automated IHC staining system (Ventana). Sections were then imaged using a ScanScope XT microscope (Aperio) and quantified using Aperio software.

Setting [2] is: BVT948 monotherapy, treatment from palpable tumors (50 mm^3), 8 mice per arm.

Regarding BVT948, in data set [1], the “Stat1 phosphorylation at Tyrosine 701 and Serine 727” value is “increased”. Moreover, the “decrease in GEMM6 tumor growth, combination” value in the data set with GEMM6 tumors (BVT948 in combination with Vemurafenib) is “roughly 50%”. The “tumor viability (H&E staining)” value in the data set with GEMM6 tumors (BVT948 monotherapy, GEMM6 tumors) was “not significantly changed”. Also, in the data set with GEMM6 tumors (setting [2]), the “mice completely regressing and immune to rechallenge 1 month later” value is on record as 3/8; the “mice showing reductions in tumor growth” value is listed as 6/8; the “mice that died (most likely drug toxicity or autoimmune response)” value is on record as 2/8. Besides, in the data set with GEMM6 tumors (larger tumors (200 mm^3), BVT948 10 mg/kg or Vemurafenib 30 mg/kg intraperitoneal), the “GEMM6 tumor growth, monotherapy vs vehicle” value is “did not significantly reduce”.
